# Patent US8628762B2, “T-helper cell type 17 lineage-specific adjuvants, compositions and methods” (Icahn School of Medicine at Mount Sinai, priority 2008, dated 2014)
# Entries after “also recorded” stand apart in the source; their conditions may differ.
# Key:
# [1] = tested on: caspase-9 and caspase-3, caspase-8 and caspase-10, and caspase-12; conditions: cited from earlier work
# A20 cells = experiment: Inhibition of anti-Fas induced apoptosis, Annexin-V/7-AAD flow cytometry; assay type: cell-based; conditions: anti-Fas (anti-CD95), four hours, Annexin V/7AAD staining
# [2] = tested on: IL-17+ CD4 T-cells in the lamina propria; experiment: IL-17+ CD4 T-cells in lamina propria of C. rodentium infected mice (flow cytometry); assay type: in vivo, C57BL/6J and C3H/HeOuJ mice
# Procedure: The small intestines and colons of C57BL/6J or C3H/HeOuJ mice were harvested at the indicated times. […] To prepare IEL/LPL, small intestines and colons were flushed with HBSS medium without calcium or magnesium (Gibco). Intestines were cut longitudinally and washed twice briefly in HBSS, 2% FBS in 6-well plates and then placed in 15 mL ice-cold HBSS, 2% FBS in 50-mL conical tubes and vortexed at maximum setting for 15-20 seconds. Tissue was removed using long forceps into a new tube with 15 mL ice-cold HBSS, 2% FBS and vortexed again twice, for a total of three washes. The tissues were then placed in 50-mL conical tubes containing 25 mL, HBSS, 5% FBS, and 1 mM DTT (Sigma-Aldrich). Tubes were incubated on a rocker at 37° C. for 20 minutes followed by vortexing extensively at maximum setting. For IEL, fractions were collected after two rounds of 20 minutes in HBSS/FBS/DTT. Tissues were then placed in fresh tubes containing 25 mL of PBS with 1.3 mM EDTA, incubated on a rocker for 60 minutes at 37° C. and vortexed. […]
# (§1) WT and mutant C. rodentium were prepared by incubation with shaking at 37° C. for 8 hours in LB broth medium. After 8 hours, the bacterial density was assessed at an optical density of 600 nm and confirmed by plating of serial dilutions. […]
# [3] = tested on: infection induced barrier function; conditions: cited from earlier work
# [4] = tested on: intestinal epithelial cells; experiment: TUNEL staining of colon sections of C. rodentium infected mice; assay type: in vivo, C3H/HeOuJ mice; conditions: 20 mg/kg intraperitoneally on days 0, 1, 2, 3, and 5, colons day 6
# Procedure: Colons of C3H/HeOuJ mice were harvested on day 6 and flushed with PBS. Tissues were fresh-frozen in O.C.T. Compound (Sakura Finetek, Zoeterwoude, The Netherlands) and stored at −80° C. Sections of 6 μm were cut and fixed with either 4% paraformaldehyde or ice-cold acetone for 1 h, dried, and stored at −20° C. TUNEL staining was performed using the In Situ Cell Death Detection Kit, TMR Red (Roche) according to manufacturer's instructions. For immunostaining, sections were blocked and incubated with primary antibodies in a humidified atmosphere for 1 hour at room temperature. After washing, conjugated secondary antibodies were added for 35 minutes. The slides were then washed and mounted with Fluoromount-G (Southern Biotech, Birmingham, Ala.). […] Analyses were performed using 10× and 20× dry objectives on a Nikon Eclipse E-600 fluorescence microscope and Adobe® Photoshop® software (Adobe Systems, San Jose, Calif.).
# as §1
smiles,measurement,setting,value
CC(C)[C@H](NC(=O)c1ccc2ccccc2n1)C(=O)N[C@@H](CC(=O)O)C(=O)COc1c(F)cccc1F [Q-VD-OPH],prevention of apoptosis by pathway,"[1]; caspase-9 and caspase-3, caspase-8 and caspase-10, and caspase-12 pathways",equally effective in preventing apoptosis mediated by the three major apoptotic pathways
same,prevention of apoptosis compared with other caspase inhibitors,[1],significantly more effective in preventing apoptosis than ZVAD-fmk and Boc-D-fmk
same,toxicity to cells,[1],not toxic to cells even at extremely high concentrations
same,Fas-induced apoptosis,A20 cells,protected from undergoing Fas-induced apoptosis; also recorded: inhibits apoptosis
same,number of IL-17+ CD4 T-cells,[2]; C. rodentium infected C57BL/6J mice,levels similar to those found in uninfected mice
same,number of IL-17+ CD4 T-cells,[2]; both strains of C. rodentium infected mice,profoundly diminished the number of IL-17^+ CD4 T-cells
same,effect on infection induced barrier function,[3],has no effects on infection induced barrier function
same,numbers of TUNEL+ cells,[4],decreased numbers of TUNEL^+ cells
